# According to patent US7786045B2, “Aryl ether compounds and their preparation and use thereof” (Sinochem Corporation, priority 2005, dated 2010):
# Columns and labels:
# [1] = tested on: cucumber downy mildew (Pseudoperonospora cubenis); assay: Whole-plant fungicidal test, cucumber downy mildew; format: in vivo, Pseudoperonospora cubensis
# [2] = tested on: wheat powdery mildew (BLumeria graminis); assay: Whole-plant fungicidal test, protectant activity, wheat powdery mildew; format: in vivo; settings: for control against wheat powdery mildew: 500 mg/L
# [3] = tested on: green peach aphids (Myzus persicae); assay: Insecticidal activity, green peach aphids, spraying; settings: 200 mg/L; mortality after two days
# Procedure: (§1) Determination of insecticidal and acaricidal activities of selected compounds were carried out by following procedure:
# (§2) Technical samples were dissolved in mixed solvent (acetone:methanol=1:1), and diluted to required concentration with water containing 0.1% of tween 80.
# (§3) The second instar larvae of armyworm (Leucania separata), diamond backmoth (Plutella xylostella) and culex mosquitoes (Culex pipiens pallens), green peach aphids (Myzus persicae) and mite (Tetranychus cinnabarinus) were used in biological test. The method was employed either spraying by airbrush or immersing (larvae of culex mosquitoes). A test solution (0.5 mL) was sprayed at the pressure of 10 psi (about 0.7 kg/cm^2). Percent mortality was determined after two days.
# [4] = tested on: cucumber grey mold (Botrytis cinerea); assay: Whole-plant fungicidal test, cucumber grey mold; format: in vivo; settings: 500 mg/L
# [5] = tested on: cucumber anthracnose (Colletotrichum lagenarium); assay: Whole-plant fungicidal test, cucumber anthracnose; format: in vivo
# [6] = tested on: rice sheath blight (Rhizoctonia solani); assay: Whole-plant fungicidal test, protectant activity, rice sheath blight; format: in vivo
# [7] = tested on: wheat powdery mildew; assay: Whole-plant fungicidal test, curative activity, wheat powdery mildew; format: in vivo, Erysiphe graminis; settings: for inhibition at 0.39 µg/mL / inhibition at 0.78 µg/mL / inhibition at 1.56 µg/mL / inhibition at 3.125 µg/mL / inhibition at 6.25 µg/mL / inhibition at 12.5 µg/mL: Triticum aestivum, 96 h, read-out: 4 day curative activity (%) against wheat powdery mildew
# [8] = tested on: rice blast (Pyricularia oryzae); format: in vivo; settings: in words
# [9] = tested on: tomato late blight (Phytophthora infestans); format: in vivo; settings: in words
# [10] = tested on: cucumber powdery mildew (Sphaerotheca fuliginea); assay: Whole-plant fungicidal test, cucumber powdery mildew; format: in vivo; settings: in words
# [11] = tested on: cucumber scab (Cladosporium cucumerinum); assay: Whole-plant fungicidal test, cucumber scab; format: in vivo; settings: in words
# [12] = tested on: apple alternaria rot (valsa mali); assay: Whole-plant fungicidal test, apple alternaria rot; format: in vivo; settings: in words
# [13] = tested on: rape sclerotinia stem rot (Sclerotinia sclerotiorum); assay: Whole-plant fungicidal test, rape sclerotinia stem rot; format: in vivo; settings: in words
# [14] = tested on: tomato cercospora leaf mold (Fulvia fulva); assay: Whole-plant fungicidal test, tomato cercospora leaf mold; format: in vivo; settings: in words
# [15] = tested on: corn southern leaf blight (Helminthosporium maydis); assay: Whole-plant fungicidal test, corn southern leaf blight; format: in vivo; settings: in words
# Procedure: Protectant and curative activity of experimental compounds are tested with whole plants. […] For the protectant method, test solution was sprayed onto potted plant. Pathogen inoculation was carried out after 24 hours then plants were hold in growth chambers containing constant temperature and moisture for effect. When untreated plant was under desirable disease severity (after 1 week approximately), assessment were carried out by visual observation. Test plant inoculated with fungus for 4 days are sprayed with the solution of a compound and then cultured in green house for 3-4 days. The curative activity is assessed based on the control plant's index of disease.
# [16] = tested on: wheat head blight (Fusarium graminearum); format: in vivo; settings: in words
# [17] = tested on: diamond backmoth (Plutella xylostella); assay: Insecticidal activity, diamond backmoth, spraying; settings: 200 mg/L; mortality after two days
# Procedure: as §1, §2, §3
compound,measurement,setting,value
COC(=O)N(OC)c1ccccc1COc1cc(-c2ccccc2)nn1C [Compound 1],control against cucumber downy mildew,[1]; 500 mg/L,100%
COC(=O)N(OC)c1ccccc1COc1cc(-c2ccc(SC)cc2)nn1C [Compound 8],control against cucumber downy mildew,[1]; 500 mg/L,100%
COC(=O)N(OC)c1ccccc1COc1cc(-c2ccc(Cl)cc2Cl)nn1C [Compound 10],control against wheat powdery mildew,[2],100%
same,control against cucumber downy mildew,[1]; 500 mg/L,100%
COC(=O)N(OC)c1ccccc1COc1cc(-c2ccc(Cl)cc2)nn1C(C)C [Compound 11],control against cucumber downy mildew,[1]; 500 mg/L,90%
COC(=O)N(OC)c1ccccc1COc1cc(-c2ccc(Br)cc2)nn1C [Compound 15],control against cucumber downy mildew,[1]; 25 mg/L,100%
same,control against cucumber downy mildew,[1]; 500 mg/L,100%
same,control of green peach aphids,[3],90%
COC(=O)N(OC)c1ccccc1COc1cc(-c2ccc(C)cc2)nn1C [Compound 16],control against wheat powdery mildew,[2],100%
COC(=O)N(OC)c1ccccc1COc1cc(-c2ccccc2Cl)nn1C [Compound 20],control against wheat powdery mildew,[2],100%
same,control against cucumber downy mildew,[1]; 25 mg/L,100%
same,control against cucumber downy mildew,[1]; 500 mg/L,100%
COC(=O)N(OC)c1ccccc1COc1cc(-c2ccc(Cl)nc2)nn1C [Compound 21],control against wheat powdery mildew,[2],100%
same,control against cucumber grey mold,[4],100%
COC(=O)N(OC)c1ccccc1COc1c(C)c(-c2ccccc2)nn1C [Compound 63],1 day protection activity (%) against wheat powdery mildew,[2]; 0.19 mg/L,55%
same,1 day protection activity (%) against wheat powdery mildew,[2]; 0.39 mg/L,75%
same,1 day protection activity (%) against wheat powdery mildew,[2]; 0.78 mg/L,95%
same,1 day protection activity (%) against wheat powdery mildew,[2]; 1.56 mg/L,100%
same,1 day protection activity (%) against wheat powdery mildew,[2]; 3.125 mg/L,100%
same,1 day protection activity (%) against wheat powdery mildew,[2]; 6.25 mg/L,100%
same,1 day protection activity (%) against wheat powdery mildew,[2]; 12.5 mg/L,100%
same,1 day protection activity (%) against wheat powdery mildew,[2]; 25 mg/L,100%
same,control against wheat powdery mildew,[2],100%
same,activity against wheat powdery mildew,[2]; in words,excellent activity
same,control against cucumber downy mildew,[1]; 25 mg/L,100%
same,control against cucumber downy mildew,[1]; 500 mg/L,100%
same,activity against cucumber downy mildew,[1]; in words,excellent activity
same,control against cucumber anthracnose,[5]; 1.56 mg/L,100%
same,control against cucumber anthracnose,[5]; 100 mg/L,100%
same,activity against cucumber anthracnose,[5]; in words,excellent activity
same,1 day protection activity (%) against rice sheath blight,[6]; 1.5625 mg/L,55%
same,1 day protection activity (%) against rice sheath blight,[6]; 3.125 mg/L,60%
same,1 day protection activity (%) against rice sheath blight,[6]; 6.25 mg/L,65%
same,1 day protection activity (%) against rice sheath blight,[6]; 12.5 mg/L,75%
same,1 day protection activity (%) against rice sheath blight,[6]; 25 mg/L,80%
same,1 day protection activity (%) against rice sheath blight,[6]; 50 mg/L,100%
same,1 day protection activity (%) against rice sheath blight,[6]; 100 mg/L,100%
same,activity against rice sheath blight,[6]; in words,excellent activity
same,4 day curative activity (%) against wheat powdery mildew,[7]; 0.39 mg/L,50%
same,4 day curative activity (%) against wheat powdery mildew,[7]; 0.78 mg/L,80%
same,4 day curative activity (%) against wheat powdery mildew,[7]; 1.56 mg/L,100%
same,4 day curative activity (%) against wheat powdery mildew,[7]; 3.125 mg/L,100%
same,4 day curative activity (%) against wheat powdery mildew,[7]; 6.25 mg/L,100%
same,4 day curative activity (%) against wheat powdery mildew,[7]; 12.5 mg/L,100%
same,activity against rice blast,[8],excellent activity
same,activity against tomato late blight,[9],excellent activity
same,activity against cucumber powdery mildew,[10],excellent activity
same,activity on cucumber scab,[11],good activity
same,activity on apple alternaria rot,[12],good activity
same,activity on rape sclerotinia stem rot,[13],good activity
same,activity against tomato cercospora leaf mold,[14],moderate activity
same,activity against corn southern leaf blight,[15],moderate activity
same,activity against wheat head blight,[16],moderate activity
same,control of diamond backmoth,[17],100%
COC(=O)N(OC)c1ccccc1COc1c(C)c(-c2ccc(C)cc2)nn1C [Compound 78],control against wheat powdery mildew,[2],100%
same,control against cucumber downy mildew,[1]; 25 mg/L,100%
same,control against cucumber downy mildew,[1]; 500 mg/L,100%
COC=C(C(=O)OC)c1ccccc1-c1cc(Oc2cc(-c3ccc(Cl)cc3)nn2C(C)C)ncn1 [Compound 194],control against cucumber downy mildew,[1]; 500 mg/L,100%
COC=C(C(=O)OC)c1ccccc1COc1cc(-c2cccs2)nn1C [Compound 367],control against cucumber downy mildew,[1]; 500 mg/L,100%
CON=C(C(=O)OC)c1ccccc1COc1cc(-c2cccs2)nn1C [Compound 391],control against cucumber downy mildew,[1]; 500 mg/L,90%
CNC(=O)C(=NOC)c1ccccc1COc1cc(-c2cccs2)nn1C [Compound 415],control against cucumber downy mildew,[1]; 500 mg/L,100%
"CO/N=C(/C(=O)OC)c1ccccc1COc1ccccc1C [Kresoxim methyl, reference compound]",inhibition at 0.39 µg/mL,"[2]; Blumeria graminis, 24 h, 0.39 mg/L, read-out: 1 day protection activity (%) against wheat powdery mildew",0%
same,inhibition at 0.78 µg/mL,"[2]; Blumeria graminis, 24 h, 0.78 mg/L, read-out: 1 day protection activity (%) against wheat powdery mildew",15%
same,inhibition at 1.56 µg/mL,"[2]; Blumeria graminis, 24 h, 1.56 mg/L, read-out: 1 day protection activity (%) against wheat powdery mildew",40%
same,inhibition at 3.125 µg/mL,"[2]; Blumeria graminis, 24 h, 3.125 mg/L, read-out: 1 day protection activity (%) against wheat powdery mildew",70%
same,inhibition at 6.25 µg/mL,"[2]; Blumeria graminis, 24 h, 6.25 mg/L, read-out: 1 day protection activity (%) against wheat powdery mildew",98%
same,inhibition at 12.5 µg/mL,"[2]; Blumeria graminis, 24 h, 12.5 mg/L, read-out: 1 day protection activity (%) against wheat powdery mildew",100%
same,inhibition at 25 µg/mL,"[2]; Blumeria graminis, 24 h, 25 mg/L, read-out: 1 day protection activity (%) against wheat powdery mildew",100%
same,inhibition at 0.39 µg/mL,[7]; 0.39 mg/L,0%
same,inhibition at 0.78 µg/mL,[7]; 0.78 mg/L,0%
same,inhibition at 1.56 µg/mL,[7]; 1.56 mg/L,10%
same,inhibition at 3.125 µg/mL,[7]; 3.125 mg/L,15%
same,inhibition at 6.25 µg/mL,[7]; 6.25 mg/L,20%
same,inhibition at 12.5 µg/mL,[7]; 12.5 mg/L,100%
COC(=O)N(OC)c1ccccc1COc1ccn(-c2ccc(Cl)cc2)n1 [pyraclostrobin],inhibition at 0.39 µg/mL,[7]; 0.39 mg/L,0%
same,inhibition at 0.78 µg/mL,[7]; 0.78 mg/L,25%
same,inhibition at 1.56 µg/mL,[7]; 1.56 mg/L,60%
same,inhibition at 3.125 µg/mL,[7]; 3.125 mg/L,85%
same,inhibition at 6.25 µg/mL,[7]; 6.25 mg/L,100%
same,inhibition at 12.5 µg/mL,[7]; 12.5 mg/L,100%
CC(C)(C)C(O)(CCc1ccc(Cl)cc1)Cn1cncn1 (stereo not drawn) [tebuconazole],inhibition at 0.39 µg/mL,[7]; 0.39 mg/L,0%
same,inhibition at 0.78 µg/mL,[7]; 0.78 mg/L,0%
same,inhibition at 1.56 µg/mL,[7]; 1.56 mg/L,15%
same,inhibition at 3.125 µg/mL,[7]; 3.125 mg/L,45%
same,inhibition at 6.25 µg/mL,[7]; 6.25 mg/L,70%
same,inhibition at 12.5 µg/mL,[7]; 12.5 mg/L,85%
"COC(=O)NC(=S)Nc1ccccc1NC(=S)NC(=O)OC [triophanate-methyl, reference compound]",1 day protection activity (%) against rice sheath blight,[6]; 1.5625 mg/L,0%
same,1 day protection activity (%) against rice sheath blight,[6]; 3.125 mg/L,0%
same,1 day protection activity (%) against rice sheath blight,[6]; 6.25 mg/L,0%
same,1 day protection activity (%) against rice sheath blight,[6]; 12.5 mg/L,0%
same,1 day protection activity (%) against rice sheath blight,[6]; 25 mg/L,20%
same,1 day protection activity (%) against rice sheath blight,[6]; 50 mg/L,55%
same,1 day protection activity (%) against rice sheath blight,[6]; 100 mg/L,75%
